From patent publication US10716313B2, “Ampicillin resistant texturizing lactic acid bacteria strains” (Chr. Hansen A/S, priority 2012, dated 2020)

Tested on: Lactobacillus delbrueckii subsp. bulgaricus
Assay: Ampicillin growth reduction (OD600) in MRS broth
Format: cell-based
Details: at least 20 hours at 37° C., stated as typical
Description: In order to isolate ampicillin resistant mutants of the Lactobacillus delbrueckii subsp. bulgaricus strain CHCC13995, cells derived from the growth of a single colony were inoculated anaerobically into 10 ml MRS broth containing one of the following amounts of ampicillin, 0 ng/ml, 100 ng/ml, 200 ng/ml, 300 ng/ml, 400 ng/ml, 500 ng/ml, 600 ng/ml or 700 ng/ml, and grown for at least 20 hours at 37° C. After the 20 hours of growth OD600 is measured for all samples. Typically the concentration of ampicillin that reduces the OD600 measured anaerobic growth of Lactobacillus delbrueckii subsp. bulgaricus with at least 20% as compared to the growth in MRS medium without ampicillin (i.e. with 0 ng/ml ampicillin) is higher than 300 ng/ml. Cultures where the concentration of ampicillin was 500 ng/ml were diluted and plated on MRS agar plates with no ampicillin added and then incubated anaerobically for at least 20 hours at 37° C. Colonies were then picked and screened for anaerobic growth at 37° C. in microtiter plates in the presence of 500 ng/ml ampicillin. Typically, 25% of the resulting colonies were identified as fast growers in the presence of ampicillin. These were chosen for further study. The selected ampicillin resistant mutants were further purified and tested for their ability to grow in milk. […]

CC1(C)S[C@@H]2[C@H](NC(=O)[C@H](N)c3ccccc3)C(=O)N2[C@H]1C(=O)O [ampicillin]
concentration of ampicillin that reduces the OD600 measured anaerobic growth with at least 20% as compared to the growth in MRS medium without ampicillin: higher than 300 ng/ml
